What was measured:
[1] = test system: acute chemical visceral pain model; experiment: Analgesic activity, abdominal contraction test with acetic acid (Writhing Test); type: in vivo, Swiss rats; settings: inhibition of number of contractions vs control animals
Method: Adult male Swiss rats were used in the assay, 28-30 g in weight, 10 animals per treatment group or for each assessed dose level. 1-The analgesic activity/action was assessed by using an acute chemical visceral pain model, the abdominal contraction test with acetic acid (Writhing Test) (Miranda, H; Puig, […]. Synergism between paracetamol and nonsteroidal anti-inflammatory drugs in experimental acute pain. Pain (12) 2006. 22-28) ([…]. The Type of Analgesic-Receptor interaction involved in certain analgesic assays. European Journal of Pharmacology 16 (1971) 63-66. North Holland Publishing Company) […] The antinociceptive activity was expressed as the inhibition percentage of the number of contractions observed in the animals in the groups treated at each of the assessed dose levels, with respect to the number of contractions in the study control animals.

gastric mucus = experiment: Gastric tolerance, Pisanti-Volterra method; type: in vivo, Sprague Dawley rats; settings: rats, score 0 (normal stomach) to 6 (perforated ulcer)
From the text: The following scores were attributed according to the type and intensity of the injury observed: • Score 0=Normal stomach without injury; 1=Haemorrhaging points; 2=Haemorrhaging diffusion (reddening of the surface); 3=1-5 small ulcers (<3 mm); 4=Large number of small ulcers or a deep isolated ulceration; 5=Many ulcers of various size; 6=Perforated ulcer. • The degree of gastric injury is defined by the average score; the higher score corresponds to a greater gastric injury

[2] = test system: Carrageenin-induced edema in the paw; experiment: Anti-inflammatory activity, Carrageenin-induced edema in the paw (Winter, Risley and Nuss); type: in vivo, Sprague Dawley rats; settings: rats, ± e.s.
[3] = Degradation / related substances (USP analytical method); type: physicochemical; settings: reaction mixture up to 60° C. and gelation, finished microcapsules
From the text: No related substances derived from the degradation of diclofenac mentioned in USP were detected in HPSC.
Only 2% were found above 1000, and only 1% under 250 micron.

SMILES | Analgesic Activity (% Inhibition) Avg. Score ± e.s. ([1]; Dose: 12.5 mg/kg) | Analgesic Activity (% Inhibition) Avg. Score ± e.s. ([1]; Dose: 25.0 mg/kg) | Degree of Gastric Injury Avg. score ± e.s. (gastric mucus; Dose: 12.5 mg/kg) | Degree of Gastric Injury Avg. score ± e.s. (gastric mucus; Dose: 25.0 mg/kg) | Degree of Gastric Injury Avg Score ± e.s. (gastric mucus; Dose: 50.0 mg/kg) | % Inflammation inhibition 1st hour ([2]; Dose: 12.5 mg/kg) | % Inflammation inhibition 2nd hour ([2]; Dose: 12.5 mg/kg) | % Inflammation inhibition 3rd hour ([2]; Dose: 12.5 mg/kg) | % Inflammation inhibition 4th hour ([2]; Dose: 12.5 mg/kg) | % Inflammation inhibition 5th hour ([2]; Dose: 12.5 mg/kg) | % Inflammation inhibition 2nd hour ([2]; Dose: 25.0 mg/kg) | % Inflammation inhibition 3rd hour ([2]; Dose: 25.0 mg/kg) | % Inflammation inhibition 4th hour ([2]; Dose: 25.0 mg/kg) | % Inflammation inhibition 5th hour ([2]; Dose: 25.0 mg/kg) | % Inflammation inhibition 2nd hour ([2]; Dose: 50.0 mg/kg) | % Inflammation inhibition 3rd hour ([2]; Dose: 50.0 mg/kg) | % Inflammation inhibition 4th hour ([2]; Dose: 50.0 mg/kg) | % Inflammation inhibition 5th hour ([2]; Dose: 50.0 mg/kg) | degradation / related substances [3]
O=C(O)Cc1ccccc1Nc1c(Cl)cccc1Cl [diclofenac potassium] | 53.23 ± 5.53% | 67.26 ± 4.62% | 2.64 ± 0.59 | 3.81 ± 0.35 | 4.80 ± 0.50 | 37.2 ± 12.2% | 42.5 ± 13.1% | 28.3 ± 9.5% | 30.6 ± 9.8% | 29.7 ± 10.8% | 36.4 ± 8.49% | 28.0 ± 13.56% | 23.3 ± 6.66% | 15.7 ± 5.61% | 45.8 ± 8.3% | 41.4 ± 6.9% | 47.2 ± 5.2% | 43.2 ± 4.5% | 
O=C(O)Cc1ccccc1Nc1c(Cl)cccc1Cl [diclofenac, 2-((2,6 dichlorophenyl)amino)phenyl acetic (diclofenac) acid] |  |  |  |  |  |  |  |  |  |  |  |  |  |  |  |  |  |  | not degraded

— patent publication US9918941B2 (Eastbrand Holding GMBH, priority 2012, dated 2018)
